#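 Protocol summary: plate cells (96-well), add compound at 5 concentrations, incubate 48 h, interpolate endpoints linearly. Here, GI50 denotes the concentration required for 50% inhibition of growth. TGI: concentration producing complete growth inhibition.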
# How the values were obtained:
# Experiment in all cases: NCI-60 cell line screen, 48 h
# [1] = system: HOP-62 NSCLC
# [2] = system: NCI-H460 lung
# [3] = system: PC-3 prostate
# [4] = system: RXF 393 renal
# [5] = system: TK-10 renal
# [6] = system: UACC-257 melanoma
# [7] = system: COLO 205 colon
# [8] = system: NCI-H226 lung
SMILES,GI50 [1],TGI [1],GI50 [2],TGI [2],GI50 [3],TGI [3],GI50 [4],TGI [4],GI50 [5],TGI [5],GI50 [6],TGI [6],GI50 [7],TGI [7],GI50 [8],TGI [8]
O=C(Nc1ccc(F)cc1)Nc1ccccc1CNc1nc(Nc2ccc(OCCN3CCCC3)cc2)ncc1Cl,1.39 µM,4.21 µM,1.15 µM,2.7 µM,1.67 µM,6.19 µM,0.895 µM,1.88 µM,1.77 µM,6.8 µM,1.07 µM,2.35 µM,–,–,–,–
CC/C(=C(/c1ccc(OCCN(C)C)cc1)c1ccc(OC(=O)CCC(=O)c2c(C)[nH]c(/C=C3\N=C(c4ccc[nH]4)C=C3OC)c2C)cc1)c1ccccc1,1.49 µM,4.94 µM,3.48 µM,14.1 µM,1.78 µM,17.1 µM,2.34 µM,12.6 µM,4.87 µM,15.7 µM,3.38 µM,14.7 µM,1.9 µM,7.24 µM,3.54 µM,22.5 µM
CC(C)Nc1ccc(Nc2ccccc2)cc1,23.6 µM,66.9 µM,18.9 µM,> 100 µM,9.2 µM,31.3 µM,8.81 µM,24.6 µM,23.1 µM,57.4 µM,15.6 µM,31.5 µM,14.3 µM,31.3 µM,19.9 µM,69.3 µM
Nc1cc(C(=O)O)[nH]c(=O)n1,–,> 100 µM,–,> 100 µM,–,> 100 µM,–,> 100 µM,–,> 100 µM,–,> 100 µM,–,> 100 µM,–,> 100 µM
Cn1cc(C2=C(c3cccc(N)c3)C(=O)NC2=O)c2ccccc21,9.5 µM,> 25 µM,13.6 µM,> 25 µM,14.8 µM,> 25 µM,3.63 µM,> 17.7 µM,> 25 µM,> 25 µM,> 25 µM,> 25 µM,10.8 µM,> 25 µM,10 µM,> 25 µM
CCCc1cc(O)c2c3c(c(=O)oc2c1)CN(C)CC3,67.1 µM,> 100 µM,> 100 µM,> 100 µM,> 100 µM,> 100 µM,23.1 µM,> 100 µM,> 100 µM,> 100 µM,26.1 µM,> 100 µM,40.6 µM,> 100 µM,> 100 µM,> 100 µM
C#CCN(Cc1nc2cc(C(F)(F)F)ccc2nc1-c1ccccc1)c1ccc(OC(F)(F)F)cc1,> 100 µM,> 100 µM,38 µM,> 100 µM,44.4 µM,> 100 µM,46.7 µM,> 100 µM,78.9 µM,> 100 µM,> 100 µM,> 100 µM,45.4 µM,> 100 µM,–,–
CC(=O)N1N=C(c2ccc(Nc3nc(Nc4ccc(Cl)cc4)nc(Nc4ccc(Cl)cc4)n3)cc2)CC1c1ccc([N+](=O)[O-])cc1 (stereo not drawn),13.5 µM,47.4 µM,2.75 µM,12.5 µM,2.92 µM,> 69.4 µM,2.29 µM,9.2 µM,12.2 µM,> 75.3 µM,11.4 µM,> 72.4 µM,1.82 µM,6.64 µM,12.9 µM,> 82.7 µM
CCCCCCc1cc2cc(-c3nc4ccccc4[nH]3)c(=Nc3ccccc3C)oc2cc1O,1.95 µM,4.57 µM,2.12 µM,4.77 µM,2.3 µM,7.98 µM,1.85 µM,3.95 µM,2.27 µM,4.48 µM,2.6 µM,7.01 µM,> 100 µM,> 100 µM,2.55 µM,10.3 µM
Cn1cc(C2=C(c3cn(CCO)c4ccccc34)C(=O)NC2=O)c2ccccc21,3.36 µM,> 16.6 µM,2.06 µM,> 25 µM,4.59 µM,> 25 µM,3.22 µM,9.54 µM,4.58 µM,15.5 µM,4.75 µM,22.6 µM,1.25 µM,5.89 µM,4.76 µM,> 19.6 µM
Fc1ccc(-c2nn3c(-c4ccc(F)c(Cl)c4)nnc3s2)cc1,27.5 µM,> 50 µM,27.7 µM,> 50 µM,29.1 µM,> 50 µM,0.688 µM,18.7 µM,14.2 µM,> 50 µM,10.6 µM,41.6 µM,> 50 µM,> 50 µM,> 50 µM,> 50 µM
COC(=O)C1=C(C)NC(C)=C(C(=O)OC)C1/C=C(\Cl)c1ccc(Cl)c(Cl)c1,16.3 µM,29.8 µM,6.48 µM,23.4 µM,10.8 µM,23.1 µM,13.4 µM,27.2 µM,14.8 µM,30.3 µM,18 µM,36.1 µM,17.9 µM,43.2 µM,15.8 µM,38.2 µM
c1ccc2c(c1)sc1c3cnccc3ccc21,–,> 100 µM,–,> 100 µM,–,–,–,–,–,> 100 µM,–,> 100 µM,–,> 100 µM,–,> 100 µM
Cc1ccc(NC(=O)Cc2ccc(/C=C/C(=O)c3ncc[nH]3)cc2)cc1,5.24 µM,21.6 µM,6.32 µM,> 25 µM,7.1 µM,> 25 µM,7.68 µM,> 25 µM,7.93 µM,> 25 µM,> 25 µM,> 25 µM,7.27 µM,> 25 µM,9.59 µM,> 25 µM
CCOC(=O)/C(=N\OC)C(O)C(F)(F)F (stereo not drawn),–,> 100 µM,–,–,–,> 100 µM,–,> 100 µM,–,> 100 µM,–,> 100 µM,–,> 100 µM,–,> 100 µM
CC(=O)Nc1ccc(/C=C/C(=O)c2ccccc2)cc1,14.8 µM,29.3 µM,17.6 µM,41.6 µM,23.2 µM,66.2 µM,13.9 µM,27.5 µM,14.6 µM,29.8 µM,20.7 µM,54.7 µM,14.8 µM,28 µM,27.9 µM,> 100 µM
N#C/C(=N\Nc1ccc(Cl)cc1)C(=O)Nc1cc(-c2ccccc2)nn1-c1ccccc1,3.31 µM,> 100 µM,2.51 µM,> 100 µM,2.4 µM,> 100 µM,2.06 µM,6.32 µM,4.82 µM,> 100 µM,2.35 µM,8.62 µM,2.07 µM,4.51 µM,–,–

SMILES,GI50 [1],TGI [1],GI50 [2],TGI [2],GI50 [3],TGI [3],GI50 [4],TGI [4],GI50 [5],TGI [5],GI50 [6],TGI [6],GI50 [7],TGI [7],GI50 [8],TGI [8]
N#Cc1cccc(OCc2nc(N)nc(N)c2-c2ccc(Cl)c(Cl)c2)c1,4.44 µM,> 100 µM,0.435 µM,> 100 µM,0.604 µM,> 100 µM,2.13 µM,> 100 µM,9.32 µM,> 100 µM,2.92 µM,> 100 µM,5.3 µM,> 100 µM,7.44 µM,> 100 µM
Clc1cc2c(cc1Cl)Oc1cc(Cl)c(Cl)cc1O2,> 0.625 µM,> 0.625 µM,> 0.625 µM,> 0.625 µM,> 0.625 µM,> 0.625 µM,> 0.625 µM,> 0.625 µM,> 0.625 µM,> 0.625 µM,–,–,> 0.625 µM,> 0.625 µM,> 0.625 µM,> 0.625 µM
CCOc1ccc(-c2cnnn2-c2nonc2-n2cccc2)cc1,0.421 µM,> 100 µM,0.345 µM,> 33.4 µM,0.365 µM,> 100 µM,0.172 µM,0.774 µM,0.597 µM,> 100 µM,0.449 µM,> 69 µM,0.247 µM,0.808 µM,1.52 µM,> 100 µM
CC(C)[C@H]1CC[C@H]2[C@@H](CC[C@H]3[C@](C)(CN)CCC[C@]23C)C1,1.89 µM,3.48 µM,1.68 µM,3.31 µM,2.36 µM,7.14 µM,2 µM,3.84 µM,2.19 µM,7.9 µM,2.68 µM,6.02 µM,1.74 µM,3.27 µM,4.99 µM,23.5 µM
CCCCCc1nc2c(c3c1CCCC3)CCCC2,13.1 µM,29.1 µM,12 µM,30.1 µM,8.04 µM,31.1 µM,13.1 µM,27.3 µM,8.44 µM,22.4 µM,9.7 µM,31.6 µM,10.2 µM,22.1 µM,9.57 µM,25.6 µM
O=S(=O)(Cc1ccc(Cl)cc1Cl)c1ccc(Cl)cc1,3.36 µM,> 100 µM,0.401 µM,30 µM,1.28 µM,> 100 µM,1.4 µM,7.55 µM,1.01 µM,> 53.9 µM,–,–,0.548 µM,5.52 µM,4.52 µM,> 100 µM
Cc1cc(Cl)cc2c(N=Nc3ccccc3[N+](=O)[O-])c(O)[nH]c12,–,> 100 µM,–,> 100 µM,–,> 100 µM,–,> 100 µM,–,> 100 µM,–,> 100 µM,–,> 100 µM,–,–
O=c1cc(-c2ccccc2)oc2cc(O)c(O)c(O)c12,9.49 µM,31.2 µM,7.99 µM,> 100 µM,17.4 µM,> 100 µM,78.6 µM,> 100 µM,28 µM,81.2 µM,39 µM,> 100 µM,–,–,19.3 µM,58 µM
CS(=O)(=O)OCC1OC(n2ccc(NC(=O)c3ccccc3)nc2=O)CC1OS(C)(=O)=O (stereo not drawn),–,> 100 µM,–,> 100 µM,–,> 100 µM,–,–,–,> 100 µM,–,> 100 µM,–,> 100 µM,–,> 100 µM
Cc1cc(NCCCNc2ccnc3cc(Cl)ccc23)nc(N2CCN(C)CC2)n1,4.79 µM,21 µM,2.66 µM,10.4 µM,–,–,1.35 µM,4.99 µM,6.51 µM,29.9 µM,1.8 µM,3.88 µM,2.28 µM,6.29 µM,3.39 µM,22 µM
COc1cc2c(cc1OCCCCCOc1cc3c(cc1OC)C(=O)N1CC(F)C[C@H]1C=N3)N=C[C@@H]1CC(F)CN1C2=O (stereo partly drawn),< 0.01 µM,0.222 µM,< 0.01 µM,0.143 µM,0.295 µM,1.49 µM,–,–,1.98 µM,6.32 µM,0.165 µM,0.444 µM,0.191 µM,0.465 µM,–,–
O=C(CCC(=O)Nc1cccc(Cl)c1)CC(=O)c1ccc(F)cc1,–,> 100 µM,–,> 100 µM,–,–,–,–,–,> 100 µM,–,> 100 µM,–,> 100 µM,–,> 100 µM
CC(C)(O)C#Cc1ccc(/C=C/C(=O)c2ccccc2)s1,–,–,17.3 µM,33.5 µM,13.6 µM,29.7 µM,14.7 µM,28.7 µM,19.4 µM,35.8 µM,18.4 µM,32.4 µM,16.9 µM,32.7 µM,18.8 µM,42.3 µM
COc1ccc(-n2cc(-c3cc(OC)c(OC)c(OC)c3)nc2SCc2ccccc2)cc1,78 µM,> 100 µM,52.6 µM,> 100 µM,8.7 µM,> 100 µM,–,–,> 100 µM,> 100 µM,–,–,49.5 µM,> 100 µM,> 100 µM,> 100 µM
CC(=O)CCc1ccc(OC2OC(COC(=O)c3cc(O)c(O)c(O)c3)C(O)C(O)C2OC(=O)/C=C/c2ccccc2)cc1 (stereo not drawn),17.2 µM,33.8 µM,21 µM,43.5 µM,33.4 µM,> 100 µM,19 µM,47.2 µM,23.8 µM,61.3 µM,–,–,28.1 µM,89.4 µM,16.9 µM,37 µM
CCN1/C(=C/C=C/c2n(-c3ccccc3)c3ccc(-c4nc5ccccc5s4)cc3[n+]2CC)N(c2ccccc2)c2ccc(-c3nc4ccccc4s3)cc21,–,–,0.527 µM,> 50 µM,0.284 µM,> 50 µM,0.563 µM,7.37 µM,1.94 µM,> 50 µM,0.539 µM,> 15.4 µM,0.187 µM,0.919 µM,0.317 µM,15.6 µM
